Values quoted from earlier work in US20150157610A1, “PHARMACEUTICAL COMPOSITION FOR TREATING INFLAMMATORY DISEASE” (OSAKA UNIVERSITY, priority 2012, published 2015).

Test system: fulminant myocarditis
Details: experimental, Non Patent Literature 2 and 3

In the case of `CCCCCCCCc1ccc(CCC(N)(CO)CO)cc1` [FTY720], the “efficacy against fulminant myocarditis” value is listed as “experimentally effective”.
